We go through 53 molecules from patent US10961200B2, “Small molecule inhibitors of lactate dehydrogenase and methods of use thereof” (THE UNITED STATES OF AMERICA, AS REPRESENTED BY THE …, priority 2014, dated 2021).

The term IC50 denotes the concentration that gives 50% inhibition.

The target in the first test is Human LDHA (Homo sapiens (Human), UniProt P00338). Nature of the test: human LDHA primary biochemical assay (resazurin/diaphorase coupled, fluorescence). The following applies: LDHA inhibitory activity, activity level based on IC50 (Table 7). An excerpt:
Test compounds were placed in a Greiner Bio-One (Monroe, N.C.) 1536-well black solid bottom assay plate. 200 millimolar (mM) Tris HCl, pH 7.4, 100 micromolar […] EDTA and 0.01% TWEEN-20™, final concentration, was used as the assay buffer. The LDHA reagent was 2 nanomolar (nM) Human LDHA (Meridian Life Science, Inc., Memphis, Tenn.), final concentration, in assay buffer.
Take `NS(=O)(=O)c1ccc(Cc2c(-c3cccc(OCc4ccccc4)c3)nn(-c3nc(C(=O)O)cs3)c2CC2CC2)cc1` [Compound 339]: the IC50 was under 0.1 µM.

With `NS(=O)(=O)c1ccc(Cc2c(-c3cccc(OCc4ccccc4)c3)nn(-c3nc(C(=O)O)cs3)c2CC2CC2)cc1F` [Compound 340], the IC50 is under 0.1 µM.

For `NS(=O)(=O)c1ccc(Cc2c(-c3cccc(OCc4ccccc4)c3)nn(-c3nc(C(=O)O)cs3)c2CC2CC2)c(F)c1` [Compound 341], the IC50 is under 0.1 µM.

As for `N[S+](=O)([O-])c1ccc(Cc2c(CC3CC3)nn(-c3nc(C(=O)O)cs3)c2-c2cccc(OCc3ccccc3)c2)cc1` [Compound 342], the IC50 lay in the range of 1 to 57 µM.

Molecule `CCOC(=O)c1csc(-n2nc(-c3ccc(F)c(-c4ccc(C)cc4)c3)c(Cc3ccc(S(N)(=O)=O)c(F)c3)c2CC2CC2)n1` [Compound 343] had an IC50 of 1 to 57 µM.

`CCOC(=O)c1csc(-n2nc(-c3cccc(-c4ccc(C)cc4)c3)c(Cc3ccc(S(N)(=O)=O)cc3F)c2CC2CC2)n1` [Compound 344] registered a half-inhibitory concentration (IC50) of over 57 µM.

`CCOC(=O)c1csc(-n2nc(-c3ccc(F)c(-c4ccc(F)cc4)c3)c(Cc3ccc(S(N)(=O)=O)cc3F)c2CC2CC2)n1` [Compound 345] came in with an IC50 of 1 to 57 µM.

For the molecule `Cc1ccc(-c2cccc(-c3c(Cc4ccc([S+](N)(=O)[O-])c(F)c4)c(C4CC4)nn3-c3nc(C(=O)O)cs3)c2)cc1` [Compound 346], the IC50 is 1 to 57 µM.

`Cc1ccc(-c2cccc(-c3nn(-c4nc(C(=O)O)cs4)c(C4CC4)c3Cc3ccc(S(N)(=O)=O)c(F)c3)c2)cc1` [Compound 347]: the IC50 was under 0.1 µM.

Regarding `N[S+](=O)([O-])c1ccc(Cc2c(C3CC3)nn(-c3nc(C(=O)O)cs3)c2-c2cccc(-c3ccc(F)cc3)c2)cc1F` [Compound 348], the IC50 was 1 to 57 µM.

For the molecule `NS(=O)(=O)c1ccc(Cc2c(-c3cccc(-c4ccc(F)cc4)c3)nn(-c3nc(C(=O)O)cs3)c2C2CC2)cc1F` [Compound 349], the IC50 was under 0.1 µM.

`N[S+](=O)([O-])c1ccc(Cc2c(C3CC3)nn(-c3nc(C(=O)O)cs3)c2-c2cccc(-c3cccc(F)c3)c2)cc1F` [Compound 350] displayed an IC50 of 1 to 57 µM.

As to `NS(=O)(=O)c1ccc(Cc2c(-c3cccc(-c4cccc(F)c4)c3)nn(-c3nc(C(=O)O)cs3)c2C2CC2)cc1F` [Compound 351], the IC50 was under 0.1 µM.

Molecule `COc1cccc(-c2cccc(-c3c(Cc4ccc([S+](N)(=O)[O-])c(F)c4)c(C4CC4)nn3-c3nc(C(=O)O)cs3)c2)c1` [Compound 352] displayed an IC50 of 1 to 57 µM.

The test is the same for the next values; noted with them: LDHA inhibitory activity, assay of Example 1; activity level classes.
`COc1cc(-c2nn(-c3nc(C(=O)O)cs3)c(CC3CC3)c2Cc2ccc(S(N)(=O)=O)cc2)ccc1F` [Compound 278] registered an IC50 of under 0.1 µM.

Consider `CCOC(=O)c1csc(-n2nc(-c3cccc(-c4ccccc4)c3)c(Cc3ccc(S(N)(=O)=O)cc3)c2CC2CC2)n1` [Compound 279], for which the IC50 fell in the range of 1 to 57 µM.

In turn, `Cc1ccc(-c2cccc(-c3nn(-c4nc(C(=O)O)cs4)c(CC4CC4)c3Cc3ccc(S(N)(=O)=O)cc3F)c2)cc1` [Compound 282] displayed an IC50 of under 0.1 µM.

The molecule `Cc1ccc(-c2cc(-c3c(Cc4ccc(S(N)(=O)=O)cc4F)c(CC4CC4)nn3-c3nc(C(=O)O)cs3)ccc2F)cc1` [Compound 285] yielded an IC50 of 1 to 57 µM.

In the case of `CCOC(=O)c1csc(-n2nc(-c3cccc(-c4ccccc4)c3)c(Cc3ccc(S(N)(=O)=O)cc3)c2C2(C(F)(F)F)CC2)n1` [Compound 297], the IC50 was over 57 µM.

The molecule `NS(=O)(=O)c1ccc(Cc2c(-c3cccc(-c4ccccc4)c3)nn(-c3nc(C(=O)O)cs3)c2C2(C(F)(F)F)CC2)cc1` [Compound 299] returned an IC50 of 1 to 57 µM.

Molecule `NS(=O)(=O)c1ccc(Cc2c(-c3cccc(-c4ccccc4)c3)nn(-c3nc(C(=O)O)cs3)c2C2(C(F)(F)F)CC2)c(F)c1` [Compound 300] yielded an IC50 of 0.1 to 1 µM.

Regarding `NS(=O)(=O)c1ccc(Cc2c(-c3cccc(-c4ccccc4)c3)nn(-c3nc(C(=O)O)cs3)c2C2(C(F)(F)F)CC2)cc1F` [Compound 302], the half-inhibitory concentration (IC50) was in the range of 1 to 57 µM.

In turn, `Cc1ccc(-c2cccc(-c3nn(-c4nc(C(=O)O)cs4)c(C(F)(F)F)c3Cc3ccc(S(N)(=O)=O)cc3)c2)cc1` [Compound 311] registered an IC50 of under 0.1 µM.

As for `N[S+](=O)([O-])c1ccc(Cc2c(-c3cccc(-c4ccc(F)cc4)c3)nn(-c3nc(C(=O)O)cs3)c2C(F)(F)F)cc1` [Compound 312], the IC50 is under 0.1 µM.

Take `N[S+](=O)([O-])c1ccc(Cc2c(-c3cccc(-c4cccc(F)c4)c3)nn(-c3nc(C(=O)O)cs3)c2C(F)(F)F)cc1` [Compound 313]: the half-inhibitory concentration (IC50) is under 0.1 µM.

Molecule `COc1cccc(-c2cccc(-c3nn(-c4nc(C(=O)O)cs4)c(C(F)(F)F)c3Cc3ccc(S(N)(=O)=O)cc3)c2)c1` [Compound 314] registered an IC50 of under 0.1 µM.

In turn, `CCOC(=O)c1csc(-n2nc(CC3CC3)c(Cc3ccc(S(N)(=O)=O)cc3F)c2-c2ccc(F)c(-c3cccc(F)c3)c2)n1` [Compound 315] displayed an IC50 of over 57 µM.

The molecule `CCOC(=O)c1csc(-n2nc(-c3ccc(F)c(-c4cccc(F)c4)c3)c(Cc3ccc(S(N)(=O)=O)cc3F)c2CC2CC2)n1` [Compound 316] returned an IC50 of 1 to 57 µM.

`CCOC(=O)c1csc(-n2nc(CC3CC3)c(Cc3ccc(S(N)(=O)=O)c(F)c3)c2-c2ccc(F)c(-c3cccc(F)c3)c2)n1` [Compound 317] came in with an IC50 of over 57 µM.

As for `CCOC(=O)c1csc(-n2nc(-c3ccc(F)c(-c4cccc(F)c4)c3)c(Cc3ccc(S(N)(=O)=O)c(F)c3)c2CC2CC2)n1` [Compound 318], the IC50 is over 57 µM.

The molecule `CCOC(=O)c1csc(-n2nc(CC3CC3)c(Cc3ccc(S(N)(=O)=O)cc3F)c2-c2ccc(F)c(-c3cccc(OC)c3)c2)n1` [Compound 319] gave an IC50 of over 57 µM.

Regarding `CCOC(=O)c1csc(-n2nc(-c3ccc(F)c(-c4cccc(OC)c4)c3)c(Cc3ccc(S(N)(=O)=O)cc3F)c2CC2CC2)n1` [Compound 320], the IC50 was over 57 µM.

In turn, `CCOC(=O)c1csc(-n2nc(CC3CC3)c(Cc3ccc(S(N)(=O)=O)c(F)c3)c2-c2ccc(F)c(-c3cccc(OC)c3)c2)n1` [Compound 321] displayed an IC50 of over 57 µM.

Molecule `CCOC(=O)c1csc(-n2nc(-c3ccc(F)c(-c4cccc(OC)c4)c3)c(Cc3ccc(S(N)(=O)=O)c(F)c3)c2CC2CC2)n1` [Compound 322] returned an IC50 of 1 to 57 µM.

Turning to `N[S+](=O)([O-])c1ccc(Cc2c(CC3CC3)nn(-c3nc(C(=O)O)cs3)c2-c2ccc(F)c(-c3cccc(F)c3)c2)cc1F` [Compound 325], the IC50 fell in the range of 1 to 57 µM.

`COc1cccc(-c2cc(-c3nn(-c4nc(C(=O)O)cs4)c(CC4CC4)c3Cc3ccc(S(N)(=O)=O)cc3F)ccc2F)c1` [Compound 328] came in with an IC50 of under 0.1 µM.

Molecule `CCOC(=O)c1csc(-n2nc(-c3cccc(OC4CCCC4)c3)c(Cc3ccc(S(N)(=O)=O)c(F)c3)c2CC2CC2)n1` [Compound 333] gave an IC50 of 1 to 57 µM.

On to `CCOC(=O)c1csc(-n2nc(-c3cccc(OC4CCCC4)c3)c(Cc3ccc(S(N)(=O)=O)cc3F)c2CC2CC2)n1` [Compound 335], for which the IC50 is 1 to 57 µM.

The same test, now with this note: read-out: Inhibitory activity IC50.
As for `Cc1ccc(-c2cccc(-c3c(Cc4ccc([S+](N)(=O)[O-])cc4)c(CC4CC4)nn3-c3nc(C(=O)O)cs3)c2)cc1` [Compound 280], the IC50 fell in the range of 1 to 57 µM.

`Cc1ccc(-c2cc(-c3c(Cc4ccc([S+](N)(=O)[O-])cc4)c(CC4CC4)nn3-c3nc(C(=O)O)cs3)ccc2F)cc1` [Compound 283]: the IC50 is 1 to 57 µM.

Consider `Cc1ccc(-c2cccc(-c3c(Cc4ccc([S+](N)(=O)[O-])c(F)c4)c(CC4CC4)nn3-c3nc(C(=O)O)cs3)c2)cc1` [Compound 286], for which the IC50 was 1 to 57 µM.

On to `Cc1ccc(-c2cc(-c3c(Cc4ccc([S+](N)(=O)[O-])c(F)c4)c(CC4CC4)nn3-c3nc(C(=O)O)cs3)ccc2F)cc1` [Compound 287], for which the IC50 was in the range of 1 to 57 µM.

As to `N[S+](=O)([O-])c1ccc(Cc2c(CC3CC3)nn(-c3nc(C(=O)O)cs3)c2-c2cccc(-c3ccccc3)c2)c(F)c1` [Compound 289], the IC50 lay within 1 to 57 µM.

With `N[S+](=O)([O-])c1ccc(Cc2c(CC3CC3)nn(-c3nc(C(=O)O)cs3)c2-c2cccc(-c3ccccc3)c2)cc1F` [Compound 291], the IC50 was in the range of 1 to 57 µM.

Regarding `N[S+](=O)([O-])c1ccc(Cc2c(CC3CC3)nn(-c3nc(C(=O)O)cs3)c2-c2ccc(F)c(-c3ccc(F)cc3)c2)cc1` [Compound 292], the IC50 lay in the range of 1 to 57 µM.

Turning to `N[S+](=O)([O-])c1ccc(Cc2c(CC3CC3)nn(-c3nc(C(=O)O)cs3)c2-c2ccc(F)c(-c3ccc(C4CC4)cc3)c2)cc1` [Compound 293], the IC50 is 1 to 57 µM.

For the molecule `N[S+](=O)([O-])c1ccc(Cc2c(CC3CC3)nn(-c3nc(C(=O)O)cs3)c2-c2ccc(F)c(Br)c2)cc1` [Compound 295], the IC50 lay in the range of 1 to 57 µM.

Consider `N[S+](=O)([O-])c1ccc(Cc2c(C3(C(F)(F)F)CC3)nn(-c3nc(C(=O)O)cs3)c2-c2cccc(-c3ccccc3)c2)cc1F` [Compound 301], for which the IC50 was 1 to 57 µM.

Consider `N[S+](=O)([O-])c1ccc(Cc2c(CC(F)(F)F)nn(-c3nc(C(=O)O)cs3)c2-c2cccc(-c3ccccc3)c2)cc1` [Compound 303], for which the IC50 was in the range of 1 to 57 µM.

Consider `CC(C)c1ccc(-c2cc(-c3c(Cc4ccc([S+](N)(=O)[O-])cc4)c(CC4CC4)nn3-c3nc(C(=O)O)cs3)ccc2F)cc1` [Compound 305], for which the half-inhibitory concentration (IC50) is 1 to 57 µM.

Take `N[S+](=O)([O-])c1ccc(Cc2c(CC3CC3)nn(-c3nc(C(=O)O)cs3)c2-c2ccc(F)c(-c3ccc(F)cc3)c2)c(F)c1` [Compound 308]: the IC50 lay in the range of 1 to 57 µM.

Turning to `N[S+](=O)([O-])c1ccc(Cc2c(CC3CC3)nn(-c3nc(C(=O)O)cs3)c2-c2ccc(F)c(-c3cccc(F)c3)c2)c(F)c1` [Compound 323], the concentration for half-maximal inhibition (IC50) lay within 1 to 57 µM.

With `COc1cccc(-c2cc(-c3c(Cc4ccc([S+](N)(=O)[O-])c(F)c4)c(CC4CC4)nn3-c3nc(C(=O)O)cs3)ccc2F)c1` [Compound 329], the concentration for half-maximal inhibition (IC50) fell in the range of 1 to 57 µM.
